Measurements reported in BindingDB's records for doi:10.1021/acsmedchemlett.0c00015 (The Genomics Institute of The Novartis Research Foundation, 2020).

Tests used:
[1] = Inhibition of TEL/KDR (unknown origin) transfected in mouse Ba/F3 cells assessed as reduction in cell viability incubated for 48 hrs by brightglo-luciferase reporter gene assay
[2] = Inhibition of CCDC6/RET (unknown origin) transfected in human LC2/ad cells assessed as reduction in cell viability incubated for 6 days by CellTiter Glo assay
[3] = Inhibition of KIF5B-RET (unknown origin) transfected in mouse Ba/F3 cells assessed as reduction in cell viability incubated for 48 hrs by brightglo-luciferase reporter gene assay
[4] = Inhibition of ZAP70 (unknown origin) transfected in mouse Ba/F3 cells assessed as reduction in cell viability incubated for 48 hrs by brightglo-luciferase reporter gene assay
[5] = Inhibition of IGF1R (unknown origin) transfected in mouse Ba/F3 cells assessed as reduction in cell viability incubated for 48 hrs by brightglo-luciferase reporter gene assay
[6] = Inhibition of RET (unknown origin) transfected in mouse Ba/F3 cells assessed as reduction in cell viability incubated for 48 hrs by brightglo-luciferase reporter gene assay
[7] = Inhibition of FLT3 (unknown origin) transfected in mouse Ba/F3 cells assessed as reduction in cell viability incubated for 48 hrs by brightglo-luciferase reporter gene assay
[8] = Inhibition of JAK2 (unknown origin) transfected in mouse Ba/F3 cells assessed as reduction in cell viability incubated for 48 hrs by brightglo-luciferase reporter gene assay
[9] = Inhibition of FGR (unknown origin) transfected in mouse Ba/F3 cells assessed as reduction in cell viability incubated for 48 hrs by brightglo-luciferase reporter gene assay
[10] = Inhibition of TYRO3 (unknown origin) transfected in mouse Ba/F3 cells assessed as reduction in cell viability incubated for 48 hrs by brightglo-luciferase reporter gene assay
[11] = Inhibition of FLT1 (unknown origin) transfected in mouse Ba/F3 cells assessed as reduction in cell viability incubated for 48 hrs by brightglo-luciferase reporter gene assay
[12] = Inhibition of INSR (unknown origin) transfected in mouse Ba/F3 cells assessed as reduction in cell viability incubated for 48 hrs by brightglo-luciferase reporter gene assay
[13] = Inhibition of FGFR2 (unknown origin) transfected in mouse Ba/F3 cells assessed as reduction in cell viability incubated for 48 hrs by brightglo-luciferase reporter gene assay
[14] = Inhibition of FGFR4 (unknown origin) transfected in mouse Ba/F3 cells assessed as reduction in cell viability incubated for 48 hrs by brightglo-luciferase reporter gene assay
[15] = Inhibition of PDGFRalpha (unknown origin) transfected in mouse Ba/F3 cells assessed as reduction in cell viability incubated for 48 hrs by brightglo-luciferase reporter gene assay
[16] = Inhibition of TIE1 (unknown origin) transfected in mouse Ba/F3 cells assessed as reduction in cell viability incubated for 48 hrs by brightglo-luciferase reporter gene assay
[17] = Inhibition of NPM/ALK (unknown origin) transfected in mouse Ba/F3 cells assessed as reduction in cell viability incubated for 48 hrs by brightglo-luciferase reporter gene assay
[18] = Inhibition of PDGFRbeta (unknown origin) transfected in mouse Ba/F3 cells assessed as reduction in cell viability incubated for 48 hrs by brightglo-luciferase reporter gene assay
[19] = Inhibition of FGFR1 (unknown origin) transfected in mouse Ba/F3 cells assessed as reduction in cell viability incubated for 48 hrs by brightglo-luciferase reporter gene assay
[20] = Inhibition of TRKA (unknown origin) transfected in mouse Ba/F3 cells assessed as reduction in cell viability incubated for 48 hrs by brightglo-luciferase reporter gene assay
[21] = Inhibition of SYK (unknown origin) transfected in mouse Ba/F3 cells assessed as reduction in cell viability incubated for 48 hrs by brightglo-luciferase reporter gene assay
[22] = Inhibition of RON (unknown origin) transfected in mouse Ba/F3 cells assessed as reduction in cell viability incubated for 48 hrs by brightglo-luciferase reporter gene assay
[23] = Inhibition of MER (unknown origin) transfected in mouse Ba/F3 cells assessed as reduction in cell viability incubated for 48 hrs by brightglo-luciferase reporter gene assay
[24] = Inhibition of BLK (unknown origin) transfected in mouse Ba/F3 cells assessed as reduction in cell viability incubated for 48 hrs by brightglo-luciferase reporter gene assay
[25] = Inhibition of TRKC (unknown origin) transfected in mouse Ba/F3 cells assessed as reduction in cell viability incubated for 48 hrs by brightglo-luciferase reporter gene assay
[26] = Inhibition of FGFR3 (unknown origin) transfected in mouse Ba/F3 cells assessed as reduction in cell viability incubated for 48 hrs by brightglo-luciferase reporter gene assay
[27] = Inhibition of KIF5B-RET V804M mutant (unknown origin) transfected in mouse Ba/F3 cells assessed as reduction in cell viability incubated for 48 hrs by brightglo-luciferase reporter gene assay
[28] = Inhibition of SRC (unknown origin) transfected in mouse Ba/F3 cells assessed as reduction in cell viability incubated for 48 hrs by brightglo-luciferase reporter gene assay
[29] = Inhibition of TRKB (unknown origin) transfected in mouse Ba/F3 cells assessed as reduction in cell viability incubated for 48 hrs by brightglo-luciferase reporter gene assay
[30] = Inhibition of LCK (unknown origin) transfected in mouse Ba/F3 cells assessed as reduction in cell viability incubated for 48 hrs by brightglo-luciferase reporter gene assay
[31] = Inhibition of ROS (unknown origin) transfected in mouse Ba/F3 cells assessed as reduction in cell viability incubated for 48 hrs by brightglo-luciferase reporter gene assay
[32] = Inhibition of BMX (unknown origin) transfected in mouse Ba/F3 cells assessed as reduction in cell viability incubated for 48 hrs by brightglo-luciferase reporter gene assay
[33] = Inhibition of LYN (unknown origin) transfected in mouse Ba/F3 cells assessed as reduction in cell viability incubated for 48 hrs by brightglo-luciferase reporter gene assay
[34] = Inhibition of FMS (unknown origin) transfected in mouse Ba/F3 cells assessed as reduction in cell viability incubated for 48 hrs by brightglo-luciferase reporter gene assay
[35] = Inhibition of MET (unknown origin) transfected in mouse Ba/F3 cells assessed as reduction in cell viability incubated for 48 hrs by brightglo-luciferase reporter gene assay
[36] = Inhibition of KDR (unknown origin) transfected in mouse Ba/F3 cells assessed as reduction in cell viability incubated for 48 hrs by brightglo-luciferase reporter gene assay

`COc1ccc(-c2cnn3c(N)c(-c4ccccc4)c(NC4CCN(C)CC4)nc23)cc1OC` showed an IC50 [1] of 3100 nM, an IC50 [2] of 56 nM and an IC50 [3] of 31 nM.

For `COc1ccc(-c2cnn3c(N)c(-c4ccccc4)c(OC4CCN(C)CC4)nc23)cc1OC`, the IC50 [4] was > 11000 nM, the IC50 [5] was > 11000 nM and the IC50 [6] was 170 nM. The IC50 [1] was 1400 nM, the IC50 [7] was 1700 nM and the IC50 [8] was > 1300 nM. The IC50 [9] was 98 nM, the IC50 [10] was > 11000 nM and the IC50 [11] was > 11000 nM. For the same compound, the IC50 [12] was > 11000 nM, the IC50 [13] was 3700 nM and the IC50 [14] was > 11000 nM. For the same compound, the IC50 [15] was 93 nM, the IC50 [16] was > 11000 nM and the IC50 [17] was 8300 nM. The IC50 [18] was 100 nM, the IC50 [19] was > 5600 nM and the IC50 [20] was > 11000 nM. The IC50 [21] was 7600 nM, the IC50 [22] was > 11000 nM and the IC50 [23] was > 11000 nM. For the same compound, the IC50 [2] was 95 nM, the IC50 [3] was 37 nM and the IC50 [24] was 520 nM. The IC50 [25] was > 11000 nM, the IC50 [26] was > 9800 nM and the IC50 [27] was 1800 nM. For the same compound, the IC50 [28] was 120 nM, the IC50 [29] was > 11000 nM and the IC50 [30] was 110 nM. The IC50 [31] was > 11000 nM, the IC50 [32] was > 11000 nM and the IC50 [33] was 410 nM. For the same compound, the IC50 [34] was 400 nM, the IC50 [35] was > 11000 nM and the IC50 [36] was > 11000 nM.

Compound `COC(=O)N1CCN(C(=O)c2ccc(-c3cnn4c(N)c(-c5ccccc5)c(NC5CC(C)(C)N(C)C(C)(C)C5)nc34)cc2)CC1` has an IC50 [1] of 890 nM, an IC50 [2] of 15 nM and an IC50 [3] of 3.3 nM.

Work on `COc1ccc(-c2cnn3c(N)c(-c4ccccc4)c(NC4CC(C)(C)N(C)C(C)(C)C4)nc23)cc1OC` yielded an IC50 [1] of 990 nM, an IC50 [2] of 5.3 nM and an IC50 [3] of 1.7 nM.

For `COc1ccc(-c2cnn3c(N)c(-c4ccccc4)c(OC4CCNCC4)nc23)cc1OC`, the IC50 [1] was 3600 nM, the IC50 [2] was 160 nM and the IC50 [3] was 79 nM.
